Consider four compounds from patent US20240368157A1, “FORMS AND COMPOSITIONS OF A JAK2 INHIBITOR” (Ajax Therapeutics, Inc., priority 2023, published 2024).

Data set [1] can be described thus: Approximate solubility estimates (solvent incremental addition, visual observation). In kind it is physicochemical. As to conditions: for solubility: thermodynamic from solid. On the procedure: Approximate solubility estimates of Compound 1 Lot I were ascertained using the solvent incremental addition method and visual observation (Table 2.1). […] Approximate solubilities were calculated based on the total solvent used to achieve a solution, as judged by visual observation. Actual solubilities may be greater because of the volume of solvent portions utilized or a slow rate of dissolution. […] If dissolution occurred at the first aliquot, the value was reported as “>”

Data set [2] is described as follows: Exposure experiments at high relative humidity. The class given is physicochemical. As to conditions: RT, 17 days. On the procedure: In a series of exposure experiments, Compound 1 Lot I was exposed to high relative humidity. Generally, approx. 50 mg Compound 1 was transferred to vials, and the vials were placed open in chambers containing saturated aqueous solutions of various salts, which are known to generate various relative humidity levels in the chambers. See, e.g., “Standard Practice for Maintaining Constant Relative Humidity by Means of Aqueous Solutions” ASTM Standard E 104-85 (1996); “Humidity Fixed Points of Binary Saturated Aqueous Solutions” Greenspan, L. J. Res. Natl. Bur. Stand., Sect. A […], 81A, 89-96; “Saturated Salt Solutions for Maintaining Specified Relative Humidities” Nyqvist, H. E. Int. J. Pharma. Technol. Prod. Manuf. 1983, 4, 47-48; and “Evaluation of Relative Humidity Values for Saturated Aqueous Salt Solutions Using Osmotic Coefficients Between 50 and 100° C.” Moisture Humidity, Proc. Int. Symp. 1985, 577-96.

Data set [3] in a line: Dynamic vapor sorption (DVS). In kind it is physicochemical. As to conditions: for Hysteresis: in % (unit assumed); for weight gain during sorption: DVS. On the procedure: Moisture sorption/desorption data were collected on a Surface Measurement System DVS Intrinsic instrument. Samples were not dried prior to analysis. Sorption and desorption data were collected over a range from 5% to 95% RH to 5% RH at 10% RH increments under a nitrogen purge. The equilibrium criterion used for analysis was less than 0.0100% weight change in 5 minutes with a maximum equilibration time of 3 hours. Data were not corrected for the initial moisture content of the samples.

Data set [4] can be described thus: Interconversion slurry experiments. As to conditions: interconversion slurries, ambient temperature to 65° C.; listed as Compound 1 Form I.
Method: Mixtures of Form H and Form I with Form B were utilized in these interconversion slurry experiments. […] The interconversion slurries were performed at ambient and elevated (65° C.) temperatures in various solvents and solvent mixtures.

≈ marks a conversion by molar mass, not a printed value. Read-outs that look alike come from different tables or passages of the source. Marks after values point to notes of the source that are not given here.

As to `CN(C)C(=O)Nc1cc(Oc2cnc3nc(Nc4cc(C(F)(F)F)cn(C)c4=O)n(C)c3c2C#N)ccn1` [Compound 1 Lot II], the solubility in data set [1] (1-BuOH:H2O (90:10), 80 °C, organic solvent or mixture, 1-BuOH:H2O (90:10), aw = 0.82, 80° C., read-out: Solubility) is 4000 µg/mL (≈ 7580 µM); in data set [1] (1-BuOH:H2O (96:4), 85 °C, organic solvent or mixture, 1-BuOH:H2O (96:4), aw = 0.49, 85° C., read-out: Solubility) it was 1000 µg/mL (≈ 1900 µM).

Take `CN(C)C(=O)Nc1cc(Oc2cnc3nc(Nc4cc(C(F)(F)F)cn(C)c4=O)n(C)c3c2C#N)ccn1` [Compound 1 Lot I]: the solubility is 1000 µg/mL (≈ 1900 µM) in data set [1] (2-butanone (MEK), organic solvent or mixture, 2-butanone (MEK), ambient, read-out: Solubility); 1000 µg/mL (≈ 1900 µM) in data set [1] (AcOH:H2O (20:80), aqueous with cosolvent or surfactant or cyclodextrin, AcOH:H2O (20:80), aw = 0.94, ambient, read-out: Solubility); 14000 µg/mL (≈ 26500 µM) in data set [1] (AcOH:H2O (50:50), aqueous with cosolvent or surfactant or cyclodextrin, AcOH:H2O (50:50), aw = 0.84, ambient, read-out: Solubility); greater than 51000 µg/mL in data set [1] (AcOH:H2O (85:15), organic solvent or mixture, AcOH:H2O (85:15), aw = 0.51, ambient, read-out: Solubility); 2000 µg/mL (≈ 3790 µM) in data set [1] (CHCl3, organic solvent or mixture, CHCl3, ambient, read-out: Solubility); 8000 µg/mL (≈ 15200 µM) in data set [1] (DMA, organic solvent or mixture, DMA, ambient, read-out: Solubility). Further, the solubility in data set [1] (DMSO, organic solvent or mixture, DMSO, ambient, read-out: Solubility) was 6000 µg/mL (≈ 11400 µM); in data set [1] (EtOAc, organic solvent or mixture, EtOAc, ambient, read-out: Solubility), less than 1000 µg/mL; in data set [1] (EtOH:H2O (90:10), organic solvent or mixture, EtOH:H2O (90:10), aw = 0.49, ambient, read-out: Solubility), 1000 µg/mL (≈ 1900 µM); in data set [1] (MIBK, organic solvent or mixture, MIBK, ambient, read-out: Solubility), less than 1000 µg/mL; in data set [1] (MeCN, organic solvent or mixture, MeCN, ambient, read-out: Solubility), less than 1000 µg/mL; in data set [1] (MeOH, organic solvent or mixture, MeOH, ambient, read-out: Solubility), less than 1000 µg/mL. The solubility is less than 1000 µg/mL in data set [1] (MeOH:CHCl3 (50:50), organic solvent or mixture, MeOH:CHCl3 (50:50), ambient, read-out: Solubility); 37000 µg/mL (≈ 70100 µM) in data set [1] (MeOH:DCM (1:3), organic solvent or mixture, MeOH:DCM (1:3), ambient, read-out: Solubility); 1000 µg/mL (≈ 1900 µM) in data set [1] (MeOH:H2O (90:10), organic solvent or mixture, MeOH:H2O (90:10), aw = 0.29, ambient, read-out: Solubility); 8000 µg/mL (≈ 15200 µM) in data set [1] (NMP, organic solvent or mixture, NMP, ambient, read-out: Solubility); 17000 µg/mL (≈ 32200 µM) in data set [1] (TFE, organic solvent or mixture, TFE, ambient, read-out: Solubility); less than 1000 µg/mL in data set [1] (THF, organic solvent or mixture, THF, ambient, read-out: Solubility). Also, the solubility in data set [1] (acetic acid (AcOH), organic solvent or mixture, AcOH, ambient, read-out: Solubility) was greater than 59000 µg/mL; in data set [1] (acetone, organic solvent or mixture, Acetone, ambient, read-out: Solubility), 1000 µg/mL (≈ 1900 µM); in data set [1] (acetone:H2O (90:10), organic solvent or mixture, acetone:H2O (90:10), aw = 0.69, ambient, read-out: Solubility) it was 2000 µg/mL (≈ 3790 µM); in data set [1] (i-PrOH, organic solvent or mixture, i-PrOH, ambient, read-out: Solubility), less than 1000 µg/mL; in data set [1] (organic solvent or mixture, 10% water added to acetone, ethanol, and methanol, ambient, read-out: solubility after addition of 10% water), 1000 to 2000 µg/mL (≈ 1900 to 3790 µM); in data set [1] (organic solvent or mixture, in acetone, chloroform, MEK, and aprotic solvents DMSO, DMAc, and NMP, ambient, read-out: limited solubility) it was 1000 to 8000 µg/mL (≈ 1900 to 15200 µM). In addition, the solubility is less than 1000 µg/mL in data set [1] (toluene, organic solvent or mixture, toluene, ambient, read-out: Solubility) and less than 1000 µg/mL in data set [1] (water, H2O, ambient, read-out: Solubility). Moreover, in data set [1] (AcOH, ambient), the “Solubility (mg/mL)” value is >59^b mg/mL. The “XRPD Result” value in data set [2] (75% RH) is “Forms B + C + larger peaks”; in data set [2] (97% RH), “Forms B + C + peaks”. Also, the weight gain in data set [2] (75% RH) amounted to 0.56% weight gain; in data set [2] (97% RH), 0.71% weight gain.

In the case of `CN(C)C(=O)Nc1cc(Oc2cnc3nc(Nc4cc(C(F)(F)F)cn(C)c4=O)n(C)c3c2C#N)ccn1` [Form C], the “Desorp Mass Change (%)” value in data set [3] (DVS cycle 1, target RH 5%) turned out to be 0.028%; in data set [3] (DVS cycle 1, target RH 15%), 1.354%; in data set [3] (DVS cycle 1, target RH 25%) it was 1.757%; in data set [3] (DVS cycle 1, target RH 35%), 1.927%; in data set [3] (DVS cycle 1, target RH 45%), 2.061%; in data set [3] (DVS cycle 1, target RH 55%), 2.161%. Further, the “Desorp Mass Change (%)” value in data set [3] (DVS cycle 1, target RH 65%) came out at 2.240%; in data set [3] (DVS cycle 1, target RH 75%), 2.323%; in data set [3] (DVS cycle 1, target RH 85%), 2.437%; in data set [3] (DVS cycle 1, target RH 95%), 2.620%. In addition, the “Sorp Mass Change (%)” value amounted to 0.005% in data set [3] (DVS cycle 1, target RH 5%); 1.314% in data set [3] (DVS cycle 1, target RH 15%); 1.741% in data set [3] (DVS cycle 1, target RH 25%); 1.912% in data set [3] (DVS cycle 1, target RH 35%); 2.017% in data set [3] (DVS cycle 1, target RH 45%); 2.100% in data set [3] (DVS cycle 1, target RH 55%). The “Sorp Mass Change (%)” value is reported as 2.178% in data set [3] (DVS cycle 1, target RH 65%); 2.262% in data set [3] (DVS cycle 1, target RH 75%); 2.375% in data set [3] (DVS cycle 1, target RH 85%); 2.620% in data set [3] (DVS cycle 1, target RH 95%). The Hysteresis in data set [3] (DVS cycle 1, target RH 15%) was determined as 0.040; in data set [3] (DVS cycle 1, target RH 25%), 0.016; in data set [3] (DVS cycle 1, target RH 35%) it was 0.015; in data set [3] (DVS cycle 1, target RH 45%), 0.044; in data set [3] (DVS cycle 1, target RH 55%) it was 0.061; in data set [3] (DVS cycle 1, target RH 65%) it was 0.061. Besides, the Hysteresis in data set [3] (DVS cycle 1, target RH 75%) was 0.061; in data set [3] (DVS cycle 1, target RH 85%), 0.062. The “weight gain during sorption” value in data set [3] (5-25% RH) is 1.74%; in data set [3] (5-95% RH), 2.6%. In addition, the “XRPD pattern of the post-DVS sample” value in data set [3] (after DVS experiment) is reported as “consistent with Form C with slight peak shifting”.

`CN(C)C(=O)Nc1cc(Oc2cnc3nc(Nc4cc(C(F)(F)F)cn(C)c4=O)n(C)c3c2C#N)ccn1` [Form I]: the “relative stability of anhydrous forms” value in data set [4] is reported as “metastable form with respect to Form B”.
